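Cultured in 96-well plates, cells were exposed to test compound for 48 hours across five concentrations. Definition used: TGI = concentration required for complete inhibition of growth.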
Legend:
Test in all cases: NCI tumour cell line growth inhibition, 48 h
786-0 renal = system: 786-0 renal
A498 renal = system: A498 renal
A549 NSCLC = system: A549 NSCLC
ACHN renal = system: ACHN renal
CAKI-1 renal = system: CAKI-1 renal
CCRF-CEM leukemia = system: CCRF-CEM leukemia
COLO 205 colon = system: COLO 205 colon
DLD-1 colon = system: DLD-1 colon
DMS 273 small cell lung = system: DMS 273 small cell lung
EKVX NSCLC = system: EKVX NSCLC
HCC-2998 colon = system: HCC-2998 colon
HCT-116 colon = system: HCT-116 colon
HCT-15 colon = system: HCT-15 colon
HL-60(TB) leukemia = system: HL-60(TB) leukemia
HOP-18 NSCLC = system: HOP-18 NSCLC
HOP-62 NSCLC = system: HOP-62 NSCLC
HOP-92 NSCLC = system: HOP-92 NSCLC
HT29 colon = system: HT29 colon
IGROV1 ovarian = system: IGROV1 ovarian
K-562 leukemia = system: K-562 leukemia
KM12 colon = system: KM12 colon
KM20L2 colon = system: KM20L2 colon
LOX IMVI melanoma = system: LOX IMVI melanoma
LXFL 529 NSCLC = system: LXFL 529 NSCLC
M14 melanoma = system: M14 melanoma
M19-MEL melanoma = system: M19-MEL melanoma
MALME-3M melanoma = system: MALME-3M melanoma
MOLT-4 leukemia = system: MOLT-4 leukemia
NCI-H226 lung = system: NCI-H226 lung
NCI-H23 lung = system: NCI-H23 lung
NCI-H460 lung = system: NCI-H460 lung
NCI-H522 lung = system: NCI-H522 lung
OVCAR-3 ovarian = system: OVCAR-3 ovarian
OVCAR-4 ovarian = system: OVCAR-4 ovarian
OVCAR-5 ovarian = system: OVCAR-5 ovarian
OVCAR-8 ovarian = system: OVCAR-8 ovarian
RXF 393 renal = system: RXF 393 renal
RXF-631 renal = system: RXF-631 renal
SF-268 CNS = system: SF-268 CNS
SF-295 CNS = system: SF-295 CNS
SF-539 CNS = system: SF-539 CNS
SK-MEL-2 melanoma = system: SK-MEL-2 melanoma
SK-MEL-28 melanoma = system: SK-MEL-28 melanoma
SK-MEL-5 melanoma = system: SK-MEL-5 melanoma
SK-OV-3 ovarian = system: SK-OV-3 ovarian
SN12C renal = system: SN12C renal
SNB-19 CNS = system: SNB-19 CNS
SNB-75 CNS = system: SNB-75 CNS
SNB-78 CNS = system: SNB-78 CNS
SR leukemia = system: SR leukemia
SW-620 colon = system: SW-620 colon
TK-10 renal = system: TK-10 renal
U251 CNS = system: U251 CNS
UACC-257 melanoma = system: UACC-257 melanoma
UACC-62 melanoma = system: UACC-62 melanoma
UO-31 renal = system: UO-31 renal
XF 498 CNS = system: XF 498 CNS
DMS 114 small cell lung = system: DMS 114 small cell lung
MCF7 breast = system: MCF7 breast
NCI/ADR-RES ovarian = system: NCI/ADR-RES ovarian
P388 leukemia = system: P388 leukemia
P388/ADR leukemia = system: P388/ADR leukemia
RPMI-8226 leukemia = system: RPMI-8226 leukemia
SN12K1 renal = system: SN12K1 renal

In the case of CCOC(=O)c1cn2c([nH]c3ccccc32)c(C#N)c1=O, the TGI (786-0 renal) is reported as > 100 µM, the TGI (A498 renal) is reported as > 100 µM and the TGI (A549 NSCLC) is reported as > 100 µM. The TGI (ACHN renal) was > 100 µM, the TGI (CAKI-1 renal) was > 100 µM and the TGI (CCRF-CEM leukemia) was > 100 µM. For the same compound, the TGI (COLO 205 colon) was > 100 µM, the TGI (DLD-1 colon) was > 100 µM and the TGI (DMS 273 small cell lung) was > 100 µM. The TGI (EKVX NSCLC) was > 100 µM, the TGI (HCC-2998 colon) was > 100 µM and the TGI (HCT-116 colon) was > 100 µM. For the same compound, the TGI (HCT-15 colon) was > 100 µM, the TGI (HL-60(TB) leukemia) was 47.1 µM and the TGI (HOP-18 NSCLC) was > 100 µM. The TGI (HOP-62 NSCLC) was > 100 µM, the TGI (HOP-92 NSCLC) was > 100 µM and the TGI (HT29 colon) was > 100 µM. The TGI (IGROV1 ovarian) was > 100 µM, the TGI (K-562 leukemia) was > 100 µM and the TGI (KM12 colon) was > 100 µM. For the same compound, the TGI (KM20L2 colon) was > 100 µM, the TGI (LOX IMVI melanoma) was 56.8 µM and the TGI (LXFL 529 NSCLC) was > 100 µM. For the same compound, the TGI (M14 melanoma) was > 100 µM, the TGI (M19-MEL melanoma) was > 100 µM and the TGI (MALME-3M melanoma) was > 100 µM. The TGI (MOLT-4 leukemia) was > 100 µM, the TGI (NCI-H226 lung) was > 100 µM and the TGI (NCI-H23 lung) was > 100 µM. For the same compound, the TGI (NCI-H460 lung) was > 100 µM, the TGI (NCI-H522 lung) was > 100 µM and the TGI (OVCAR-3 ovarian) was > 100 µM. For the same compound, the TGI (OVCAR-4 ovarian) was > 100 µM, the TGI (OVCAR-5 ovarian) was > 100 µM and the TGI (OVCAR-8 ovarian) was > 100 µM. The TGI (RXF 393 renal) was > 100 µM, the TGI (RXF-631 renal) was > 100 µM and the TGI (SF-268 CNS) was > 100 µM. The TGI (SF-295 CNS) was > 100 µM, the TGI (SF-539 CNS) was > 100 µM and the TGI (SK-MEL-2 melanoma) was > 100 µM. The TGI (SK-MEL-28 melanoma) was > 100 µM, the TGI (SK-MEL-5 melanoma) was > 100 µM and the TGI (SK-OV-3 ovarian) was > 100 µM. The TGI (SN12C renal) was > 100 µM, the TGI (SNB-19 CNS) was > 100 µM and the TGI (SNB-75 CNS) was > 100 µM. The TGI (SNB-78 CNS) was > 100 µM, the TGI (SR leukemia) was > 100 µM and the TGI (SW-620 colon) was 39.5 µM. For the same compound, the TGI (TK-10 renal) was > 100 µM, the TGI (U251 CNS) was > 100 µM and the TGI (UACC-257 melanoma) was > 100 µM. For the same compound, the TGI (UACC-62 melanoma) was > 100 µM, the TGI (UO-31 renal) was > 100 µM and the TGI (XF 498 CNS) was > 100 µM.

C=C1C(=O)OC2/C=C(\C)CC(O)/C=C(/CO)CC(OC(=O)/C(C)=C/C)C12 (configuration not stated) was tested, and the TGI (A498 renal) was 58.4 µM, the TGI (A549 NSCLC) was 451 µM and the TGI (CAKI-1 renal) was 238 µM. It also gave a TGI (CCRF-CEM leukemia) of 76 µM, a TGI (COLO 205 colon) of 96.8 µM and a TGI (DLD-1 colon) of 139 µM. It also gave a TGI (DMS 114 small cell lung) of 30.5 µM, a TGI (DMS 273 small cell lung) of 82.5 µM and a TGI (EKVX NSCLC) of 59.1 µM. For the same compound, the TGI (HCC-2998 colon) was 134 µM, the TGI (HCT-116 colon) was 115 µM and the TGI (HCT-15 colon) was 151 µM. For the same compound, the TGI (HL-60(TB) leukemia) was 34.9 µM, the TGI (HOP-18 NSCLC) was 49.7 µM and the TGI (HOP-62 NSCLC) was 246 µM. The TGI (HOP-92 NSCLC) was 111 µM, the TGI (HT29 colon) was 303 µM and the TGI (IGROV1 ovarian) was 121 µM. The TGI (K-562 leukemia) was 64.4 µM, the TGI (KM12 colon) was 229 µM and the TGI (KM20L2 colon) was 246 µM. The TGI (M19-MEL melanoma) was 92 µM, the TGI (MALME-3M melanoma) was 66.6 µM and the TGI (MCF7 breast) was 68.2 µM. For the same compound, the TGI (MOLT-4 leukemia) was 43.8 µM, the TGI (NCI-H226 lung) was 91 µM and the TGI (NCI-H23 lung) was 136 µM. For the same compound, the TGI (NCI-H460 lung) was 168 µM, the TGI (NCI-H522 lung) was 26.4 µM and the TGI (NCI/ADR-RES ovarian) was 538 µM. For the same compound, the TGI (OVCAR-3 ovarian) was 122 µM, the TGI (OVCAR-4 ovarian) was 319 µM and the TGI (OVCAR-5 ovarian) was 297 µM. The TGI (OVCAR-8 ovarian) was 122 µM, the TGI (P388 leukemia) was 113 µM and the TGI (P388/ADR leukemia) was 240 µM. It also gave a TGI (RPMI-8226 leukemia) of 17.4 µM, a TGI (RXF 393 renal) of 44.5 µM and a TGI (SF-268 CNS) of 233 µM. For the same compound, the TGI (SF-295 CNS) was 401 µM, the TGI (SF-539 CNS) was 115 µM and the TGI (SK-MEL-2 melanoma) was 344 µM. The TGI (SK-MEL-28 melanoma) was 41.1 µM, the TGI (SK-MEL-5 melanoma) was 44.1 µM and the TGI (SK-OV-3 ovarian) was 309 µM. For the same compound, the TGI (SN12C renal) was 437 µM, the TGI (SN12K1 renal) was 76.6 µM and the TGI (SNB-19 CNS) was 353 µM. The TGI (SNB-75 CNS) was 417 µM, the TGI (SNB-78 CNS) was 319 µM and the TGI (SW-620 colon) was 50.3 µM. The TGI (U251 CNS) was 303 µM, the TGI (UACC-257 melanoma) was 202 µM and the TGI (UACC-62 melanoma) was 274 µM. For the same compound, the TGI (UO-31 renal) was 439 µM and the TGI (XF 498 CNS) was 37.2 µM.

In the case of CCOC(=O)c1c(C(F)(F)F)oc2c1ccc1nc3nonc3nc12, the TGI (786-0 renal) is reported as 25.3 µM, the TGI (A498 renal) is reported as 30.7 µM and the TGI (A549 NSCLC) is reported as 35 µM. The TGI (ACHN renal) was 29.4 µM, the TGI (CAKI-1 renal) was 27.3 µM and the TGI (CCRF-CEM leukemia) was 5.69 µM. For the same compound, the TGI (COLO 205 colon) was 55.1 µM, the TGI (DLD-1 colon) was 28.6 µM and the TGI (DMS 114 small cell lung) was 55.9 µM. For the same compound, the TGI (DMS 273 small cell lung) was 34.4 µM, the TGI (EKVX NSCLC) was 33.3 µM and the TGI (HCC-2998 colon) was 47.6 µM. The TGI (HCT-116 colon) was 32.1 µM, the TGI (HCT-15 colon) was 32.6 µM and the TGI (HL-60(TB) leukemia) was 32.5 µM. For the same compound, the TGI (HOP-18 NSCLC) was 26 µM, the TGI (HOP-62 NSCLC) was 18.9 µM and the TGI (HOP-92 NSCLC) was 27.3 µM. It also gave a TGI (HT29 colon) of 28.9 µM, a TGI (IGROV1 ovarian) of 55.7 µM and a TGI (K-562 leukemia) of 13.9 µM. For the same compound, the TGI (KM12 colon) was 51.3 µM, the TGI (KM20L2 colon) was 36.5 µM and the TGI (LOX IMVI melanoma) was 31.8 µM. The TGI (LXFL 529 NSCLC) was 27.2 µM, the TGI (M14 melanoma) was 21 µM and the TGI (M19-MEL melanoma) was 38.2 µM. For the same compound, the TGI (MALME-3M melanoma) was 32 µM, the TGI (MOLT-4 leukemia) was 12.6 µM and the TGI (NCI-H226 lung) was 36.1 µM. For the same compound, the TGI (NCI-H23 lung) was 18.3 µM, the TGI (NCI-H460 lung) was 49.6 µM and the TGI (NCI-H522 lung) was 29.3 µM. For the same compound, the TGI (OVCAR-3 ovarian) was 30.4 µM, the TGI (OVCAR-4 ovarian) was 24.9 µM and the TGI (OVCAR-5 ovarian) was 31.6 µM. For the same compound, the TGI (OVCAR-8 ovarian) was 30.4 µM, the TGI (RPMI-8226 leukemia) was > 42.3 µM and the TGI (RXF 393 renal) was 16.4 µM. For the same compound, the TGI (RXF-631 renal) was 37.6 µM, the TGI (SF-268 CNS) was 38.6 µM and the TGI (SF-295 CNS) was > 63.3 µM. It also gave a TGI (SF-539 CNS) of 32 µM, a TGI (SK-MEL-2 melanoma) of 33.8 µM and a TGI (SK-MEL-28 melanoma) of 27.3 µM. The TGI (SK-MEL-5 melanoma) was 26.7 µM, the TGI (SK-OV-3 ovarian) was 35.7 µM and the TGI (SN12C renal) was 31.7 µM. It also gave a TGI (SNB-19 CNS) of 38.2 µM, a TGI (SNB-75 CNS) of 30 µM and a TGI (SNB-78 CNS) of 23.2 µM. The TGI (SR leukemia) was 17.7 µM, the TGI (SW-620 colon) was 35.3 µM and the TGI (TK-10 renal) was 36.4 µM. For the same compound, the TGI (U251 CNS) was 29.1 µM, the TGI (UACC-257 melanoma) was 27.9 µM and the TGI (UACC-62 melanoma) was 29.1 µM. The TGI (UO-31 renal) was 33.4 µM and the TGI (XF 498 CNS) was 30.8 µM.
